# US20230093861A1, “RAPAMYCIN ANALOGS AS MTOR INHIBITORS” (Revolution Medicines, Inc., priority 2017, published 2023)
# Tests used:
# P-P70S6K (T389) = assay: Cell based AlphaLISA assay, inhibition of P-P70S6K (T389) (mTORC1 substrate phosphorylation) in MDA-MB-468 cells; conditions: Homo sapiens, 4 h, AlphaLISA, two to four hours at 37° C., read-out: pIC50 for Inhibition of mTORC1 and mTORC2 Substrate Phosphorylation, P-P70S6K-(T389) (converted)
# Summary of the method: (§1)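 AlphaLISA SureFire Ultra detection of phosphorylated substrate in lysed cells; duplicate Alpha reads; control-normalized IC50 fitting.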
# P-4E-BP1 (T37/46) = assay: Cell based AlphaLISA assay, inhibition of P-4E-BP1 (T37/46) (mTORC1 substrate phosphorylation) in MDA-MB-468 cells; conditions: Homo sapiens, MDA-MB-468, 4 h, AlphaLISA, two to four hours at 37° C., read-out: pIC50 for Inhibition of mTORC1 and mTORC2 Substrate Phosphorylation, P-4E-BP1-(T37/46) (converted)
# Summary of the method: as §1
# P-Akt (S473) = assay: Cell based AlphaLISA assay, inhibition of P-Akt (S473) (mTORC2 substrate phosphorylation) in MDA-MB-468 cells; conditions: Homo sapiens, MDA-MB-468, 4 h, AlphaLISA, two to four hours at 37° C., read-out: pIC50 for Inhibition of mTORC1 and mTORC2 Substrate Phosphorylation, p-AKT 1/2/3 -(S473) (converted)
# Summary of the method: as §1
SMILES,IC50 (P-P70S6K (T389)),IC50 (P-4E-BP1 (T37/46)),IC50 (P-Akt (S473))
COc1ccc(-c2ccc3ncc4c(c3c2)n(-c2ccc(N3CCN(C(=O)CCOCCOCCOCCOCCOCCOCCOCCOCCn5cc(CCCCO[C@@H]6CC[C@@H](C[C@@H](C)[C@@H]7CC(=O)[C@H](C)/C=C(\C)[C@@H](O)[C@@H](OC)C(=O)[C@H](C)C[C@H](C)/C=C/C=C/C=C(\C)[C@@H](OC)C[C@@H]8CC[C@@H](C)[C@@](O)(O8)C(=O)C(=O)N8CCCC[C@H]8C(=O)O7)C[C@H]6OC)nn5)CC3)c(C(F)(F)F)c2)c(=O)n4C)cn1 [Example 11],< 1 nM,< 3.16 nM,< 3.16 nM
CO[C@H]1C[C@@H]2CC[C@@H](C)[C@@](O)(O2)C(=O)C(=O)N2CCCC[C@H]2C(=O)O[C@H]([C@H](C)C[C@@H]2CC[C@@H](OCCCCc3cn(CCOCCOCCOCCOCCOCCOCCOCCOCCC(=O)NCCCCn4nc(I)c5c(N)ncnc54)nn3)[C@H](OC)C2)CC(=O)[C@H](C)/C=C(\C)[C@@H](O)[C@@H](OC)C(=O)[C@H](C)C[C@H](C)/C=C/C=C/C=C/1C [Example 4],< 1 nM,> 1000 nM,> 1000 nM
CO[C@H]1C[C@@H]2CC[C@@H](C)[C@@](O)(O2)C(=O)C(=O)N2CCCC[C@H]2C(=O)O[C@H]([C@H](C)C[C@@H]2CC[C@@H](O)[C@H](OC)C2)C[C@@H](OC)[C@H](C)/C=C(\C)[C@@H](O)[C@@H](OC)C(=NOCc2cn(CCOCCOCCOCCOCCOCCOCCOCCOCCC(=O)NCCCCn3nc(-c4ccc5oc(N)nc5c4)c4c(N)ncnc43)nn2)[C@H](C)C[C@H](C)/C=C/C=C/C=C/1C [Example 17],1 to 10 nM,3.16 to 31.6 nM,31.6 to 1000 nM
COC(=O)N[C@H]1C[C@@H]2CC[C@@H](C)[C@@](O)(O2)C(=O)C(=O)N2CCCC[C@H]2C(=O)O[C@H]([C@H](C)C[C@@H]2CC[C@@H](OCCCCc3cn(CCOCCOCCOCCOCCOCCOCCC(=O)N4CCN(c5ccc(-n6c(=O)n(C)c7cnc8ccc(-c9ccc(OC)nc9)cc8c76)cc5C(F)(F)F)CC4)nn3)[C@H](OC)C2)CC(=O)[C@H](C)/C=C(\C)[C@@H](O)[C@@H](OC)C(=O)[C@H](C)C[C@H](C)/C=C/C=C/C=C/1C [Example 73],< 1 nM,< 3.16 nM,< 3.16 nM
CO[C@H]1C[C@@H]2CC[C@@H](C)[C@@](O)(O2)C(=O)C(=O)N2CCCC[C@H]2C(=O)O[C@H]([C@H](C)C[C@@H]2CC[C@@H](O)[C@H](OC)C2)C[C@@H](O)[C@H](C)/C=C(\C)[C@@H](O)[C@@H](OC)C(=NOCc2cn(CCOCCOCCOCCOCCOCCOCCOCCOCCC(=O)NCCCCn3nc(-c4cc5cc(O)ccc5[nH]4)c4c(N)ncnc43)nn2)[C@H](C)C[C@H](C)/C=C/C=C/C=C/1C [Example 94],1 to 10 nM,3.16 to 31.6 nM,> 1000 nM
CO[C@H]1C[C@@H]2CC[C@@H](C)[C@@](O)(O2)C(=O)C(=O)N2CCCC[C@H]2C(=O)O[C@H]([C@H](C)C[C@@H]2CC[C@H](n3cc(-c4cccc(C(=O)NCCOCCOCCOCCC(=O)NCCOCCOCCOCCOCCC(=O)NCCCCn5nc(-c6cc7cc(O)ccc7[nH]6)c6c(N)ncnc65)c4)nn3)[C@H](OC)C2)CC(=O)[C@H](C)/C=C(\C)[C@@H](O)[C@@H](OC)C(=O)[C@H](C)C[C@H](C)/C=C/C=C/C=C/1C [Example 140],1 to 10 nM,3.16 to 31.6 nM,31.6 to 1000 nM
CO[C@H]1C[C@@H]2CC[C@@H](C)[C@@](O)(O2)C(=O)C(=O)N2CCCC[C@H]2C(=O)O[C@H]([C@H](C)C[C@@H]2CC[C@@H](OCCCCc3cn(CCOCCOCCOCCOCCOCCOCCOCCOCCC(=O)NCCCCn4ncc5c(N)ncnc54)nn3)[C@H](OC)C2)CC(=O)[C@H](C)/C=C(\C)[C@@H](O)[C@@H](OC)C(=O)[C@H](C)C[C@H](C)/C=C/C=C/C=C/1C [Example 5],< 1 nM,31.6 to 1000 nM,> 1000 nM
CO[C@H]1C[C@@H]2CC[C@@H](C)[C@@](O)(O2)C(=O)C(=O)N2CCCC[C@H]2C(=O)O[C@H]([C@H](C)C[C@@H]2CC[C@H](n3cc(-c4cnc(N5CCN(c6ncc(C(=O)NCCOCCOCCOCCOCCC(=O)N7CCc8cc(Cn9nc(-c%10ccc%11oc(N)nc%11c%10)c%10c(N)ncnc%109)ccc8C7)cn6)CC5)nc4)nn3)[C@H](OC)C2)CC(=O)[C@H](C)/C=C(\C)[C@@H](O)[C@@H](OC)C(=O)[C@H](C)C[C@H](C)/C=C/C=C/C=C/1C [Example 117],< 1 nM,> 1000 nM,> 1000 nM
CO[C@H]1C[C@@H]2CC[C@@H](C)[C@@](O)(O2)C(=O)C(=O)N2CCCC[C@H]2C(=O)O[C@H]([C@H](C)C[C@@H]2CC[C@H](n3cc(CCCC(=O)NCCOCCOCCOCCC(=O)NCCOCCOCCC(=O)NCCCCn4nc(-c5cc6cc(O)ccc6[nH]5)c5c(N)ncnc54)nn3)[C@H](OC)C2)C[C@@H](OC)[C@H](C)/C=C(\C)[C@@H](O)[C@@H](OC)C(=O)[C@H](C)C[C@H](C)/C=C/C=C/C=C/1C [Example 163],10 to 1000 nM,> 1000 nM,> 1000 nM
CO[C@H]1C[C@@H]2CC[C@@H](C)[C@@](O)(O2)C(=O)C(=O)N2CCCC[C@H]2C(=O)O[C@H]([C@H](C)C[C@@H]2CC[C@@H](OCCCCc3cn(CCOCCOCCOCCOCCOCCOCCOCCOCCOCCOCCOCCOCCOCCOCCOCCOCCOCCOCCOCCOCCOCCOCCOCCOCCC(=O)NCCCCn4nc(-c5ccc6oc(N)nc6c5)c5c(N)ncnc54)nn3)[C@H](OC)C2)CC(=O)[C@H](C)/C=C(\C)[C@@H](O)[C@@H](OC)C(=O)[C@H](C)C[C@H](C)/C=C/C=C/C=C/1C [Example 97],1 to 10 nM,3.16 to 31.6 nM,3.16 to 31.6 nM
CO[C@@H]1C[C@H](C[C@@H](C)[C@@H]2CC(=O)[C@H](C)/C=C(\C)[C@@H](O)[C@@H](OC)C(=O)[C@H](C)C[C@H](C)/C=C/C=C/C=C(\C)[C@@H](c3ccco3)C[C@@H]3CC[C@@H](C)[C@@](O)(O3)C(=O)C(=O)N3CCCC[C@H]3C(=O)O2)CC[C@H]1OCCCCc1cn(CCOCCOCCOCCOCCOCCOCCOCCOCCC(=O)NCCCCn2nc(-c3cc4cc(O)ccc4[nH]3)c3c(N)ncnc32)nn1 [Example 76],< 1 nM,< 3.16 nM,3.16 to 31.6 nM
CO[C@H]1C[C@@H]2CC[C@@H](C)[C@@](O)(O2)C(=O)C(=O)N2CCCC[C@H]2C(=O)O[C@H]([C@H](C)C[C@@H]2CC[C@@H](O)[C@H](OC)C2)C[C@@H](OC)[C@H](C)/C=C(\C)[C@@H](O)[C@@H](OC)C(=NOCc2cn(CCOCCOCCOCCOCCNC(=O)CCCC(=O)NCCCCn3nc(-c4ccc5oc(N)nc5c4)c4c(N)ncnc43)nn2)[C@H](C)C[C@H](C)/C=C/C=C/C=C/1C [Example 104],1 to 10 nM,31.6 to 1000 nM,31.6 to 1000 nM
CO[C@@H]1C[C@H](C[C@@H](C)[C@@H]2CC(=O)[C@H](C)/C=C(\C)[C@@H](O)[C@@H](OC)C(=O)[C@H](C)C[C@H](C)/C=C/C=C/C=C(\C)[C@@H](c3ccco3)C[C@@H]3CC[C@@H](C)[C@@](O)(O3)C(=O)C(=O)N3CCCC[C@H]3C(=O)O2)CC[C@H]1OCCCCc1cn(CCOCCOCCOCCOCCOCCOCCOCCOCCC(=O)NCCCCn2nc(-c3ccc4oc(N)nc4c3)c3c(N)ncnc32)nn1 [Example 18],< 1 nM,< 3.16 nM,< 3.16 nM
CO[C@H]1C[C@@H]2CC[C@@H](C)[C@@](O)(O2)C(=O)C(=O)N2CCCC[C@H]2C(=O)O[C@H]([C@H](C)C[C@@H]2CC[C@@H](OCCCCc3cn(CCOCCOCCOCCNC(=O)CCCCC(=O)NCCCCn4nc(-c5ccc6oc(N)nc6c5)c5c(N)ncnc54)nn3)[C@H](OC)C2)CC(=O)[C@H](C)/C=C(\C)[C@@H](O)[C@@H](OC)C(=O)[C@H](C)C[C@H](C)/C=C/C=C/C=C/1C [Example 102],< 1 nM,3.16 to 31.6 nM,3.16 to 31.6 nM
CO[C@H]1C[C@@H]2CC[C@@H](C)[C@@](O)(O2)C(=O)C(=O)N2CCCC[C@H]2C(=O)O[C@H]([C@H](C)C[C@@H]2CC[C@H](n3nncc3-c3cccc(-c4cnc(N5CCN(Cc6cn(CCOCCOCCOCCOCCOCCC(=O)NCCCCn7nc(-c8ccc9oc(N)nc9c8)c8c(N)ncnc87)nn6)C(CO)C5)nc4)c3)[C@H](OC)C2)CC(=O)[C@H](C)/C=C(\C)[C@@H](O)[C@@H](OC)C(=O)[C@H](C)C[C@H](C)/C=C/C=C/C=C/1C (stereo partly drawn) [Example 32],1 to 10 nM,3.16 to 31.6 nM,3.16 to 31.6 nM
CO[C@H]1C[C@@H]2CC[C@@H](C)[C@@](O)(O2)C(=O)C(=O)N2CCCC[C@H]2C(=O)O[C@H]([C@H](C)C[C@@H]2CC[C@@H](OCCCCc3cn(CCOCCOCCOCCOCCNC(=O)CCCC(=O)NCCCCn4nc(-c5ccc6oc(N)nc6c5)c5c(N)ncnc54)nn3)[C@H](OC)C2)CC(=O)[C@H](C)/C=C(\C)[C@@H](O)[C@@H](OC)C(=O)[C@H](C)C[C@H](C)/C=C/C=C/C=C/1C [Example 101],< 1 nM,< 3.16 nM,3.16 to 31.6 nM
CO[C@H]1C[C@@H]2CC[C@@H](C)[C@@](O)(O2)C(=O)C(=O)N2CCCC[C@H]2C(=O)O[C@H]([C@H](C)C[C@@H]2CC[C@H](n3cc(-c4cnc(N5CCN(c6ncc(C(=O)NCCOCCOCCOCCC(=O)NCCCCn7nc(-c8cc9cc(O)ccc9[nH]8)c8c(N)ncnc87)cn6)CC5)nc4)nn3)[C@H](OC)C2)CC(=O)[C@H](C)/C=C(\C)[C@@H](O)[C@@H](OC)C(=O)[C@H](C)C[C@H](C)/C=C/C=C/C=C/1C [Example 114],< 1 nM,> 1000 nM,> 1000 nM
